Measurements taken from patent publication US20240034743A9, “TRICYCLIC COMPOUNDS AS EGFR INHIBITORS” (QILU PHARMACEUTICAL CO., LTD., priority 2020, published 2024).
Read-outs that look alike come from different tables or passages of the source.

What was measured:
[1] = tested on: Ba/F3_Del19/T790M/C797S cells; test: Ba/F3_Del19/T790M/C797S cell proliferation inhibition assay (CellTiter-Glo); assay type: cell-based; conditions: Mus musculus
Summary of the method: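 IC50 for growth inhibition came from CellTiter-Glo chemiluminescence after a 72 h, 37° C compound exposure. Ba/F3_Del19/T790M/C797S cells were plated at 700/well, and compound was dosed in gradient with 0.1% final DMSO.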

[2] = tested on: Ba/F3_L858R/T790M/C797S cells; test: Ba/F3_L858R/T790M/C797S cell proliferation inhibition assay (CellTiter-Glo); assay type: cell-based; conditions: Mus musculus
Summary of the method: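 Proliferation IC50 derived from CellTiter-Glo luminescence in Ba/F3 cells expressing triple-mutant EGFR (L858R/T790M/C797S). Cells (700/well) incubated 72 h with graded compound doses at 0.1% DMSO final, 37 °C, 5% CO2; reagent developed 30 min at room temperature in the dark.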

[3] = tested on: A431 cells (EGFR WT); test: A431 cell proliferation inhibition assay (CellTiter-Glo); assay type: cell-based; conditions: Homo sapiens
Summary of the method: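 CellTiter-Glo luminescence quantified growth after 72 h treatment with serially diluted compounds (final DMSO 0.1%), following a 24 h attachment period at 37° C, 5% CO2. Signal read after 30 min dark incubation at room temperature, with half-maximal growth inhibition reported as IC50.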

[4] = molecular target: EGFR WT (wild type EGFR) (Homo sapiens (Human), UniProt P00533); test: In vitro enzymatic TR-FRET (HTRF KinEASE-TK) kinase assay, EGFR WT; assay type: biochemical
EGFR WT (wild type EGFR), sequence (P00533 25-1210): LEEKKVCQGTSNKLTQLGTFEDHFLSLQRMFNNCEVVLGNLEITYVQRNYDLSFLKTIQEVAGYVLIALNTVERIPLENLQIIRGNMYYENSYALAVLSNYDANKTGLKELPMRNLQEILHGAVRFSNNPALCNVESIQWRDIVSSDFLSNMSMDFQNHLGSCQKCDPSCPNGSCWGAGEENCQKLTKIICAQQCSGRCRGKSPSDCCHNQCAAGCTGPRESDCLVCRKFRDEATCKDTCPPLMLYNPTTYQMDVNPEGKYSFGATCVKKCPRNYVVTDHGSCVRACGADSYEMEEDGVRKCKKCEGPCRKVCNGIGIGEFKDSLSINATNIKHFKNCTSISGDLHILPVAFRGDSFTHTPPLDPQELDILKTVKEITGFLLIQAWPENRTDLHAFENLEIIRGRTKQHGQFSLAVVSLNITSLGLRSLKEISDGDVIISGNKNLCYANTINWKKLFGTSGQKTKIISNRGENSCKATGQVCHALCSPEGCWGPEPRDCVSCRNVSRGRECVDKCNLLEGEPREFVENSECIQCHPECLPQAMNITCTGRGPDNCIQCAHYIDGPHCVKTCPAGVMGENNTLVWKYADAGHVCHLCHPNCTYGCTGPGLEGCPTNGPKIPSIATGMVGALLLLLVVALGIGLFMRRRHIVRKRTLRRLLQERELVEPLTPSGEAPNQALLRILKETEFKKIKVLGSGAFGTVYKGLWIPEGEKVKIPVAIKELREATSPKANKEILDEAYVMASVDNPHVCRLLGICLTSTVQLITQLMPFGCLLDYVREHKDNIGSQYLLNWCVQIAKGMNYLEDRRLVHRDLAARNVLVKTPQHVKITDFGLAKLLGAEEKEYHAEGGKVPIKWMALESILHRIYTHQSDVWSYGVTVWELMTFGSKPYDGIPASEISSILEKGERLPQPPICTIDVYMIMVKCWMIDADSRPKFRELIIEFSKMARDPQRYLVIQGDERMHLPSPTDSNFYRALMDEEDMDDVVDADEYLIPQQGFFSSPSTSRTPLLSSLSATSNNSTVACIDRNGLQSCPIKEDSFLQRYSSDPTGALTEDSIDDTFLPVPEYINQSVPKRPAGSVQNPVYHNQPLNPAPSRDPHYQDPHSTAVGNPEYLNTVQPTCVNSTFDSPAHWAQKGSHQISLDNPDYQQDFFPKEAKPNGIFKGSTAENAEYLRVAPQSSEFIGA
Summary of the method: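 IC50 derived from the 665/615 nm TR-FRET ratio after 1 h with streptavidin-XL665 and Cryptate-labelled TK antibody. Kinase reaction ran 40 min at room temperature with biotin-TK substrate and ATP, following 10 min compound–enzyme preincubation. Buffer: 5 mM MgCl2, 1 mM MnCl2, 1 mM DTT.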

[5] = BaF3, cell proliferation, 72 h, CellTiter-Glo, read-out: Ba/F3 (Del19/T790M/C797S) IC50
[6] = BaF3, cell proliferation, 72 h, CellTiter-Glo, read-out: Ba/F3 (L858R/T790M/C797S) IC50
[7] = A-431, cell proliferation, 72 h, CellTiter-Glo, read-out: A431 EGFR WT IC50
[8] = kinase activity, TR-FRET, read-out: EGFR (WT) IC50
[9] = BaF3, 72 h, read-out: Ba/F3 (Del19/T790M/C797S) IC50(nM)
[10] = BaF3, 72 h, read-out: Ba/F3 (L858R/T790M/C797S) IC50(nM)
[11] = A-431, 72 h, read-out: A431 EGFR WT IC50(nM)

Row | SMILES | IC50 [1, 5] [nM] | IC50 [2, 6] [nM] | IC50 [3, 7] [nM] | IC50 [4, 8] [nM] | IC50 [1, 9] [nM] | IC50 [2, 10] [nM] | IC50 [3, 11] [nM] | IC50 [4] [nM]
1 | COc1cc2c(cc1Nc1ncc(Br)c(Nc3ccccc3P(C)(C)=O)n1)-c1cnn(C)c1CC=C2 [Compound 40] | < 10 | 10 to 50 | 100 to 1000 | 10 to 50 | – | – | – | –
2 | COc1cc2c(cc1Nc1ncc(Br)c(Nc3ccccc3P(C)(C)=O)n1)-c1cn[nH]c1CCN2C [Compound 37] | < 10 | 10 to 50 | 100 to 1000 | 1 to 10 | – | – | – | –
3 | COc1cc2c(cc1Nc1ncc(Br)c(Nc3ccccc3P(C)(C)=O)n1)-c1ccnn1CCN2C [Compound 29] | 10 to 50 | 10 to 50 | 100 to 1000 | 10 to 50 | – | – | – | –
4 | COc1nc2c(cc1Nc1ncc(Br)c(Nc3ccccc3P(C)(C)=O)n1)-c1cnn(C)c1CCN2C [Compound 79] | 10 to 50 | 10 to 50 | 100 to 1000 | 10 to 50 | – | – | – | –
5 | COc1cc2c(cc1Nc1ncc(Br)c(Nc3ccccc3P(C)(C)=O)n1)-c1cnn(C)c1CCN2 [Compound 28] | – | – | – | 1 to 10 | < 10 | < 10 | 100 to 1000 | –
6 | COc1cc2c(cc1Nc1ncc(Br)c(Nc3ccccc3P(C)(C)=S)n1)-c1cnn(C)c1CCN2C1CCN(C)CC1 [Compound 101] | – | – | – | – | < 10 | < 10 | 100 to 1000 | 1 to 10
7 | COc1cc2c(cc1Nc1ncc(Br)c(Nc3ccccc3N(C)S(C)(=O)=O)n1)-c1cnn(C)c1CCN2C [Compound 4] | < 10 | < 10 | 100 to 1000 | 1 to 10 | – | – | – | –
8 | CCn1ncc2c1CCN(C)c1cc(OC)c(Nc3ncc(Br)c(Nc4ccccc4P(C)(C)=O)n3)cc1-2 [Compound 39] | – | – | – | 10 to 50 | 10 to 50 | 10 to 50 | 100 to 1000 | –
9 | COc1cc2c(cc1Nc1ncc(Br)c(Nc3ccccc3NS(C)(=O)=O)n1)-c1cnn(C)c1CCN2C(C)C [Compound 54] | < 10 | 10 to 50 | 100 to 1000 | 1 to 10 | – | – | – | –
10 | COc1cc2c(cc1Nc1ncc(Br)c(Nc3ccccc3P(C)(C)=O)n1)-c1cnnn1CCN2C [Compound 48] | < 10 | 10 to 50 | 100 to 1000 | 10 to 50 | – | – | – | –
11 | COc1cc2c(cc1Nc1ncc(Br)c(Nc3ccccc3P(C)(C)=O)n1)-c1scnc1CCN2C [Compound 42] | < 10 | < 10 | 100 to 1000 | 1 to 10 | – | – | – | –
12 | COc1cc2c(cc1Nc1ncc(Br)c(Nc3ccc4nccnc4c3P(C)(C)=O)n1)-c1cnn(C)c1CN(C(C)C)C2 [Compound 72] | – | – | – | 1 to 10 | < 10 | 10 to 50 | 50 to 100 | –
13 | COc1nc2c(cc1Nc1ncc(Br)c(Nc3ccc4nccnc4c3NS(C)(=O)=O)n1)-c1cnn(C)c1CCN2 [Compound 81] | < 10 | < 10 | 100 to 1000 | 1 to 10 | – | – | – | –

Continued, in another order:

Row | IC50 [1, 5] [nM] | IC50 [2, 6] [nM] | IC50 [3, 7] [nM] | IC50 [4, 8] [nM] | SMILES | IC50 [1, 9] [nM] | IC50 [2, 10] [nM] | IC50 [3, 11] [nM] | IC50 [4] [nM]
14 | < 10 | 10 to 50 | 100 to 1000 | 1 to 10 | COc1cc2c(cc1Nc1ncc(Br)c(Nc3ccc4nccnc4c3NC(C)=O)n1)-c1cnn(C)c1CCN2C(C)C [Compound 106] | – | – | – | –
15 | < 10 | 10 to 50 | 100 to 1000 | 10 to 50 | COc1cc2c(cc1Nc1ncc(Br)c(Nc3ccc4nccnc4c3P(C)(C)=O)n1)-c1cnn(C)c1CCN2C(C)=O [Compound 15] | – | – | – | –
16 | < 10 | < 10 | 100 to 1000 | 1 to 10 | COc1cc2c(cc1Nc1ncc(C)c(Nc3ccccc3P(C)(C)=O)n1)-c1cnn(C)c1CCN2C [Compound 7] | – | – | – | –
17 | < 10 | 10 to 50 | 100 to 1000 | 1 to 10 | COc1cc2c(cc1Nc1ncc(Br)c(Nc3ccncc3P(C)(C)=O)n1)-c1cnn(C)c1CCN2C(C)C [Compound 97] | – | – | – | –
18 | < 10 | < 10 | 10 to 50 | 1 to 10 | COc1cc2c(cc1Nc1nc(Nc3ccc4nccnc4c3P(C)(C)=O)c3cc[nH]c3n1)-c1cnn(C)c1CCN2C [Compound 60] | – | – | – | –
19 | < 10 | 10 to 50 | 100 to 1000 | 1 to 10 | COc1cc2c(cc1Nc1ncc(Br)c(Nc3cccnc3P(C)(C)=O)n1)-c1cnn(C)c1CCN2C [Compound 44] | – | – | – | –
20 | < 10 | 10 to 50 | 100 to 1000 | 1 to 10 | COc1cc2c(cc1Nc1ncc(Br)c(Nc3ccnc(C)c3P(C)(C)=O)n1)-c1cnn(C)c1CCN2C(C)C [Compound 111] | – | – | – | –
21 | < 10 | < 10 | 100 to 1000 | 1 to 10 | COc1cc2c(cc1Nc1ncc(Br)c(Nc3ccc4nccnc4c3P(C)(C)=O)n1)-c1cnn(C)c1CCN2C1CCN(C2CC(F)(F)C2)CC1 [Compound 96] | – | – | – | –
22 | < 10 | < 10 | 50 to 100 | 1 to 10 | COc1cc2c(cc1Nc1ncc(Br)c(Nc3ccc4nccnc4c3P(C)(C)=O)n1)-c1cn(C)nc1CCN2C [Compound 8] | – | – | – | –
23 | 10 to 50 | 10 to 50 | 100 to 1000 | 1 to 10 | COc1cc2c(cc1Nc1ncc(Br)c(Nc3ccc4nccnc4c3P(C)(C)=O)n1)-c1cnn(C3COC3)c1CCN2C(C)C [Compound 98] | – | – | – | –
24 | < 10 | < 10 | 50 to 100 | 1 to 10 | COc1cc2c(cc1Nc1ncc(Br)c(Nc3ccccc3P(C)(C)=O)n1)-c1cnn(C)c1CCN2C [Compound 2] | – | – | – | –
25 | 100 to 1000 | 100 to 1000 | > 1000 | 1 to 10 | COc1cc2c(cc1Nc1ncc(Br)c(Nc3ccnc(C)c3NS(C)(=O)=O)n1)-c1cnn(C)c1CCN2C [Compound 136] | – | – | – | –
26 | < 10 | < 10 | 100 to 1000 | 1 to 10 | COc1cc2c(cc1Nc1ncc(Br)c(Nc3ccc4nccnc4c3N(C)S(=O)(=O)C3CC3)n1)-c1cnn(C)c1CCN2C [Compound 21] | – | – | – | –
27 | 10 to 50 | 50 to 100 | 100 to 1000 | 10 to 50 | COc1cc2c(cc1Nc1ncc(Br)c(Nc3ccccc3P(C)(C)=O)n1)-c1cnn(C)c1CCC2 [Compound 38] | – | – | – | –
28 | 10 to 50 | 50 to 100 | 100 to 1000 | 1 to 10 | COc1cc2c(cc1Nc1ncc(Br)c(Nc3ccn4ccnc4c3NS(C)(=O)=O)n1)-c1cnn(C)c1CCN2C(C)C [Compound 110] | – | – | – | –
29 | < 10 | < 10 | 100 to 1000 | 1 to 10 | COc1cc2c(cc1Nc1ncc(Br)c(Nc3ccc4nccnc4c3P(C)(C)=O)n1)-c1cnn(C)c1CCN2C(C)C [Compound 6] | – | – | – | –
30 | < 10 | < 10 | 100 to 1000 | 1 to 10 | COc1cc2c(cc1Nc1ncc(Br)c(Nc3ccccc3P(C)(C)=O)n1)-c1cnn(C)c1CCN2CCN1CCC(F)CC1 [Compound 41] | – | – | – | –
31 | < 10 | 10 to 50 | 100 to 1000 | 1 to 10 | COc1cc2c(cc1Nc1ncc(Br)c(Nc3ccc4nccnc4c3NS(C)(=O)=O)n1)-c1cnn(C)c1CCN2C#N [Compound 113] | – | – | – | –
